Drawing on US11708348B2, “Protease inhibitors for treatment of coronavirus infections” (The Scripps Research Institute, priority 2021, dated 2023), this text covers EC50 for 23 compounds.

A value given as a limit tells only on which side of the number the result lay.

The first test has as its system SARS-CoV-2 strain USA-WA1/2020. The test is described as follows: microbe, parasite or virus in culture. It is filed as cell-based. The conditions noted are these: Severe acute respiratory syndrome coronavirus 2, HeLa-ACE2, 24 h, HeLa-ACE2 cells, SARS-CoV-2 infection, 24 h; given as bound; read-out: EC50, uM (Hela).
One may read the EC50 as the concentration needed to bring the measured effect to its halfway point. As for `CC(=O)N[C@H](C(=O)N1CC2(CC2)C[C@H]1C(=O)N[C@@H](C[C@@H]1CCNC1=O)C(=O)COC(F)(F)F)C(C)(C)C` [Compound 436, (S)-5-((S)-2-acetamido-3,3-dimethylbutanoyl)-N-((S)-3-oxo-1-((S)-2-oxopyrrolidin-3-yl)-4-(trifluoromethoxy)butan-2-yl)-5-azaspiro[2.4]heptane-6-carboxamide], the EC50 is > 1 µM.

The same test, now with this note: Severe acute respiratory syndrome coronavirus 2, HeLa-ACE2, 24 h, HeLa-ACE2 cells, SARS-CoV-2 infection, 24 h; read-out: EC50, uM (Hela).
For the compound `O=C1NCC[C@H]1C[C@H](NC(=O)[C@@H]1CC2(CC2)CN1C(=O)C1(O)CCC(F)(F)CC1)C(=O)COC(F)(F)F` [Compound 421, (S)-5-(4,4-difluoro-1-hydroxycyclohexane-1-carbonyl)-N—((S)-3-oxo-1-((S)-2-oxopyrrolidin-3-yl)-4-(trifluoromethoxy)butan-2-yl)-5-azaspiro[2.4]heptane-6-carboxamide], the EC50 was < 0.05 µM.

Take `O=C1NCC[C@H]1C[C@H](NC(=O)[C@@H]1CC2(CC2)CN1C(=O)C1(O)CCC1)C(=O)COC(F)(F)F` [Compound 422, (S)-5-(1-hydroxycyclobutane-1-carbonyl)-N-((S)-3-oxo-1-((S)-2-oxo-pyrrolidin-3-yl)-4-(trifluoromethoxy)butan-2-yl)-5-azaspiro[2.4]heptane-6-carboxamide]: the EC50 lay in the range of 0.05 to 0.2 µM.

`O=C1NCC[C@H]1C[C@H](NC(=O)[C@@H]1CC2(CC2)CN1C(=O)C1(O)CCCC1)C(=O)COC(F)(F)F` [Compound 423, (S)-5-(l-hydroxycyclopentane-1-carbonyl)-N-((S)-3-oxo-1-((S)-2-oxopyrrolidin-3-yl)-4-(trifluoromethoxy)butan-2-yl)-5-azaspiro[2.4]heptane-6-carboxamide]: the EC50 is 0.05 to 0.2 µM.

Take `O=C1NCC[C@H]1C[C@H](NC(=O)[C@@H]1CC2(CC2)CN1C(=O)C1(O)CCCCC1)C(=O)COC(F)(F)F` [Compound 424, (S)-5-(l-hydroxycyclohexane-1-carbonyl)-N-((S)-3-oxo-1-((S)-2-oxopyrrolidin-3-yl)-4-(trifluoromethoxy)butan-2-yl)-5-azaspiro[2.4]heptane-6-carboxamide]: the EC50 lay within 0.05 to 0.2 µM.

Take `CCC[C@@H](O)C(=O)N1C[C@@H]2CCC[C@@H]2[C@H]1C(=O)N[C@@H](C[C@@H]1CCNC1=O)C(=O)COC(F)(F)F` [Compound 425, (1S,3aR,6aS)-2-((R)-2-hydroxypentanoyl)-N-((S)-3-oxo-1-((S)-2-oxopyrrolidin-3-yl)-4-(trifluoromethoxy)butan-2-yl)octahydrocyclo-penta[c]pyrrole-1-carboxamide]: the EC50 was 0.05 to 0.2 µM.

`C[C@@H](C[C@@H](O)C(=O)N1CC2(CC2)C[C@H]1C(=O)N[C@@H](C[C@@H]1CCNC1=O)C(=O)COC(F)(F)F)C(F)(F)F` [Compound 427, (S)-N-((S)-3-oxo-1-((S)-2-oxopyrrolidin-3-yl)-4-(trifluoromethoxy)butan-2-yl)-5-((2R,4S)-5,5,5-trifluoro-2-hydroxy-4-methylpentanoyl)-5-azaspiro[2.4]heptane-6-carboxamide]: the EC50 is < 0.05 µM.

Take `CC(C)CCC(=O)N1CC2(CC2)C[C@H]1C(=O)N[C@@H](C[C@@H]1CCNC1=O)C(=O)COC(F)(F)F` [Compound 429, (S)-5-(4-methylpentanoyl)-N—((S)-3-oxo-1-((S)-2-oxopyrrolidin-3-yl)-4-(trifluoromethoxy)butan-2-yl)-5-azaspiro[2.4]heptane-6-carboxamide]: the EC50 was < 0.05 µM.

Take `CC(C)(O)CCC(=O)N1CC2(CC2)C[C@H]1C(=O)N[C@@H](C[C@@H]1CCNC1=O)C(=O)COC(F)(F)F` [Compound 430, (S)-5-(4-hydroxy-4-methylpentanoyl)-N-((S)-3-oxo-1-((S)-2-oxopyrrolidin-3-yl)-4-(trifluoromethoxy)butan-2-yl)-5-azaspiro[2.4]heptane-6-carboxamide]: the EC50 lay in the range of 0.2 to 0.5 µM.

For `CC(C)[C@H](O)CC(=O)N1CC2(CC2)C[C@H]1C(=O)N[C@@H](C[C@@H]1CCNC1=O)C(=O)COC(F)(F)F` [Compound 431, (S)-5-((R)-3-hydroxy-4-methylpentanoyl)-N-((S)-3-oxo-1-((S)-2-oxopyrrolidin-3-yl)-4-(trifluoromethoxy)butan-2-yl)-5-azaspiro[2.4]heptane-6-carboxamide], the EC50 is 0.05 to 0.2 µM.

As to `CC(C)[C@@H](O)CC(=O)N1CC2(CC2)C[C@H]1C(=O)N[C@@H](C[C@@H]1CCNC1=O)C(=O)COC(F)(F)F` [Compound 432, (S)-5-((S)-3-hydroxy-4-methylpentanoyl)-N-((S)-3-oxo-1-((S)-2-oxopyrrolidin-3-yl)-4-(trifluoromethoxy)butan-2-yl)-5-azaspiro[2.4]heptane-6-carboxamide], the EC50 lay in the range of 0.05 to 0.2 µM.

`COC(=O)N[C@H](C(=O)N1CC2(CC2)C[C@H]1C(=O)N[C@@H](C[C@@H]1CCNC1=O)C(=O)COC(F)(F)F)C(C)(C)C` [Compound 433, methyl ((S)-3,3-dimethyl-1-oxo-1-((S)-6-(((S)-3-oxo-1-((S)-2-oxopyrrolidin-3-yl)-4-(trifluoromethoxy)butan-2-yl)carbamoyl)-5-azaspiro[2.4]heptan-5-yl)butan-2-yl)carbamate]: the EC50 is 0.05 to 0.2 µM.

Regarding `CC(C)C[C@H](NC(=O)CNC1(C(F)(F)F)CC1)C(=O)N[C@@H](C[C@@H]1CCNC1=O)C(=O)COC(F)(F)F` [Compound 434, (S)-4-methyl-N-((S)-3-oxo-1-((S)-2-oxopyrrolidin-3-yl)-4-(trifluoromethoxy)butan-2-yl)-2-(2-((1-(trifluoromethyl)-cyclopropyl)amino)-acetamido)pentanamide], the EC50 is < 0.05 µM.

`CNC(=O)N[C@H](CC(C)C)C(=O)N1CC2(CC2)C[C@H]1C(=O)N[C@@H](C[C@@H]1CCNC1=O)C(=O)COC(F)(F)F` [Compound 435, (S)-5-((methylcarbamoyl)-D-leucyl)-N—((S)-3-oxo-1-((S)-2-oxopyrrolidin-3-yl)-4-(trifluoromethoxy)butan-2-yl)-5-azaspiro[2.4]heptane-6-carboxamide]: the EC50 lay in the range of 0.2 to 0.5 µM.

For `O=C(NCC(=O)N1CC2(CC2)C[C@H]1C(=O)N[C@@H](C[C@@H]1CCNC1=O)C(=O)COC(F)(F)F)c1ccccc1F` [Compound 437, (S)-5-((2-fluorobenzoyl)glycyl)-N-((S)-3-oxo-1-((S)-2-oxopyrrolidin-3-yl)-4-(trifluoromethoxy)butan-2-yl)-5-azaspiro[2.4]heptane-6-carboxamide], the EC50 lay in the range of 0.05 to 0.2 µM.

For `CC[C@@H](N)C(=O)N1C[C@H]2[C@@H]([C@H]1C(=O)N[C@@H](C[C@@H]1CCNC1=O)C(=O)COC(F)(F)F)C2(C)C` [Compound 439, (1R,2S,5S)-3-((R)-2-aminobutanoyl)-6,6-dimethyl-N-((S)-3-oxo-1-((S)-2-oxopyrrolidin-3-yl)-4-(trifluoromethoxy)butan-2-yl)-3-azabicyclo[3.1.0]-hexane-2-carboxamide], the EC50 fell in the range of 0.2 to 0.5 µM.

As for `CN1CCC[C@H]1C(=O)N1C[C@@H]2CCC[C@@H]2[C@H]1C(=O)N[C@@H](C[C@@H]1CCNC1=O)C(=O)COC(F)(F)F` [Compound 440, (1S,3aR,6aS)-2-(methylprolyl)-N-((S)-3-oxo-1-((S)-2-oxopyrrolidin-3-yl)-4-(trifluoromethoxy)butan-2-yl)octahydrocyclo-penta[c]pyrrole-1-carboxamide], the EC50 lay in the range of 0.5 to 1 µM.

On to `CC(C)(C)[C@H](NC(=O)OC1CC1)C(=O)N1C[C@H]2[C@@H]([C@H]1C(=O)N[C@@H](C[C@@H]1CCNC1=O)C(=O)COC(F)(F)F)C2(C)C` [Compound 447, cyclopropyl ((S)-1-((1R,2S,5S)-6,6-dimethyl-2-(((S)-3-oxo-1-((S)-2-oxopyrrolidin-3-yl)-4-(trifluoromethoxy)butan-2-yl)carbamoyl)-3-azabicyclo[3.1.0]-hexan-3-yl)-3,3-dimethyl-1-oxobutan-2-yl)carbamate], for which the EC50 was < 0.05 µM.

`CCC(CC)C(=O)N1CC2(CC2)C[C@H]1C(=O)N[C@@H](C[C@@H]1CCNC1=O)C(=O)COC(F)(F)F` [Compound 448, (S)-5-(2-ethylbutanoyl)-N-((S)-3-oxo-1-((S)-2-oxopyrrolidin-3-yl)-4-(trifluoromethoxy)butan-2-yl)-5-azaspiro[2.4]heptane-6-carboxamide]: the EC50 lay in the range of 0.05 to 0.2 µM.

Consider `CC(C)C[C@@H](O)C(=O)N(C(=O)[C@@H]1C[C@@]2(C)C[C@H]2N1)[C@@H](C[C@@H]1CCNC1=O)C(=O)COC(F)(F)F` [Compound 449, (1R,3S,5R)-2-((R)-2-hydroxy-4-methylpentanoyl)-5-methyl-N-((S)-3-oxo-1-((S)-2-oxopyrrolidin-3-yl)-4-(trifluoromethoxy)butan-2-yl)-2-azabicyclo[3.1.0]-hexane-3-carboxamide], for which the EC50 lay within 0.05 to 0.2 µM.

In the case of `O=C1NCC[C@H]1C[C@H](NC(=O)[C@@H]1CC2(CC2)CN1C(=O)[C@H](O)CC(F)F)C(=O)COC(F)(F)F` [Compound 450, (S)-5-((R)-4,4-difluoro-2-hydroxybutanoyl)-N-((S)-3-oxo-1-((S)-2-oxopyrrolidin-3-yl)-4-(trifluoromethoxy)butan-2-yl)-5-azaspiro[2.4]heptane-6-carboxamide], the EC50 is 0.05 to 0.2 µM.

Staying with this test, now noted: Severe acute respiratory syndrome coronavirus 2, HeLa-ACE2, 24 h; read-out: EC50, uM (Hela).
Take `CC(C)(C)[C@H](NC(=O)C(F)(F)F)C(=O)N1CC2(CC2)C[C@H]1C(=O)N[C@@H](C[C@@H]1CCNC1=O)C(=O)COC(F)(F)F` [Compound 441, (S)-5-((S)-3,3-dimethyl-2-(2,2,2-trifluoroacetamido)butanoyl)-N—((S)-3-oxo-1-((S)-2-oxopyrrolidin-3-yl)-4-(trifluoromethoxy)butan-2-yl)-5-azaspiro[2.4]heptane-6-carboxamide]: the concentration giving a half-maximal response (EC50) was < 0.05 µM.

As to `CC1(C)[C@@H]2[C@@H](C(=O)N[C@@H](C[C@@H]3CCNC3=O)C(=O)COC(F)(F)F)N(C(=O)C(CN3CCC(F)(F)CC3)NC(=O)C(F)(F)F)C[C@@H]21` (stereo partly drawn) [Compound 442, (1R,2S, 5S)-3-(3-(4,4-difluoropiperidin-1-yl)-2-(2,2,2-trifluoroacetamido)-propanoyl)-6,6-dimethyl-N-((S)-3-oxo-1-((S)-2-oxopyrrolidin-3-yl)-4-(trifluoromethoxy)butan-2-yl)-3-azabicyclo[3.1.0]-hexane-2-carboxamide], the EC50 fell in the range of 0.2 to 0.5 µM.
